Structures are written as SMILES.

One experiment deals with T1, Integrin alpha-4 (Homo sapiens, UniProt P13612).
T1 sequence (P13612 whole entry): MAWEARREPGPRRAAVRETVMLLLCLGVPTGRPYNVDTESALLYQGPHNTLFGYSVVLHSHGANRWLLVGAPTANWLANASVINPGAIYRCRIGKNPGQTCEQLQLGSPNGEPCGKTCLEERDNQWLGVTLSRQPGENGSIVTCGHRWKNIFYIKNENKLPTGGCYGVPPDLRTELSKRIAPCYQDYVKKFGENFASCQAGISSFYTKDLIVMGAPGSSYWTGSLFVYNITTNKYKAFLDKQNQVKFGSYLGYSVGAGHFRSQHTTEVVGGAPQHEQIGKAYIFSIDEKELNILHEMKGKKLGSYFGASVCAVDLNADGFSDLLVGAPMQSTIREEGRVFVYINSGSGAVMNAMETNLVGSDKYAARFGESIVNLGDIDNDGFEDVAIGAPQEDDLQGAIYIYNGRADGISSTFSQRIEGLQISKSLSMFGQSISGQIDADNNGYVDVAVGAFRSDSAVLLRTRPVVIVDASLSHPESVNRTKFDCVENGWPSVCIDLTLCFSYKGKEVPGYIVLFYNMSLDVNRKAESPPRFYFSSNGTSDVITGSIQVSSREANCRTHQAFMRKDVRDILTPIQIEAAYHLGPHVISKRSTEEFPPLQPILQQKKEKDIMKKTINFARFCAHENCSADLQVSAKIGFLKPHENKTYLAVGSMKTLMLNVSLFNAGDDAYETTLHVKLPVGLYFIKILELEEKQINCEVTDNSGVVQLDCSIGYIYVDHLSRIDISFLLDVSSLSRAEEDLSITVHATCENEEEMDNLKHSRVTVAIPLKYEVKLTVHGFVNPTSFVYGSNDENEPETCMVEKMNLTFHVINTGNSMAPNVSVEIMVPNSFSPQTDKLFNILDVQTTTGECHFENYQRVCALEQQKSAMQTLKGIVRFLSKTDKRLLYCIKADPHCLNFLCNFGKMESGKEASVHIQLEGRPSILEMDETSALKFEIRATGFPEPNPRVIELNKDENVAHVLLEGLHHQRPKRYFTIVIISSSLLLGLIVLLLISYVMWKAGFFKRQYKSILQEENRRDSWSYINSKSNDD
Briefly: concentration series for VLA-4 modulators – cell-based, U937, HUTS-21 LIBS antibody, flow cytometry, dose response (AID 449766).
Conditions: not given
Consider `COc1cccc(-c2sc3ccccc3c2-c2ccc(OCCN3CCCC3)cc2)c1`, for which the EC50 – broadly, the concentration that produces a half-maximal response – was over 30 µM.

`COc1cccc(-c2sc3ccccc3c2-c2ccc(OCCN(C)C)cc2)c1` returned an EC50 of 12.4 µM.

The compound `c1ccc(-c2sc3ccccc3c2-c2ccc(OCCN3CCCC3)cc2)cc1` [1-[2-[4-(2-phenyl-1-benzothiophen-3-yl)phenoxy]ethyl]pyrrolidine] returned an EC50 of 14.8 µM. This EC50 and that of the compound before are within 1.5-fold of each other.

Compound `COC(=O)C1CN(C#N)N(c2ccc(Cl)cc2)C12c1ccccc1-c1ccccc12` (configuration not stated) [2'-(4-chlorophenyl)-1'-cyano-4'-spiro[fluorene-9,3'-pyrazolidine]carboxylic acid methyl ester] came in with an EC50 of 6.71 µM. Against the preceding compound, the EC50 is about 2.2-fold lower.

On to `C[S+]([O-])c1nc(-c2ccc(Br)cc2)cc(-c2ccccc2)c1C#N` (configuration not stated) [6-(4-bromophenyl)-2-(methylsulfinyl)-4-phenylnicotinonitrile], for which the EC50 stood at 2.67 µM.

Take `COC(=O)[C@@H]1[C@@H](C(=O)OC)C2(c3ccccc3-c3ccccc32)N(c2ccc(Cl)cc2)N1C#N` [(3'S,4'R)-1'-(4-chlorophenyl)-2'-cyanospiro[fluorene-9,5'-pyrazolidine]-3',4'-dicarboxylic acid dimethyl ester]: the concentration for a half-maximal effect (EC50) is over 30 µM.

`CC(NC(=O)/C(C#N)=C/c1ccc(Cl)c([N+](=O)[O-])c1)c1ccccc1` (configuration not stated) [(E)-3-(4-chloro-3-nitrophenyl)-2-cyano-N-(1-phenylethyl)prop-2-enamide]: the EC50 was 0.95 µM.

On to `CCOCCCNC(=O)/C(C#N)=C/c1ccc(Cl)c([N+](=O)[O-])c1` [(E)-3-(4-chloro-3-nitrophenyl)-2-cyano-N-(3-ethoxypropyl)-2-propenamide], for which the response was half-maximal at 3.59 µM (EC50).

With `COc1ccc(C(=O)c2cc([N+](=O)[O-])ccc2N2CCOCC2)cc1` [MLS000663963], the EC50 is over 30 µM.

As to `C=C1C(O)[C@@H]2O[C@]3(CC[C@H](/C=C/C(C)[C@@H]4CC(C)=CC5(O[C@H](C[C@@](C)(O)CO)CCC5O)O4)O3)CC[C@H]2O[C@@H]1C(O)CC(C)[C@H]1OC2(CCCCO2)CCC1C` (some centres not stated) [MLS002320507], a half-maximal effect (EC50) was put at 0.61 µM.

Turning to `C=C(C=O)C[C@@H]1C[C@H](O)C2OC3C[C@]4(C)OC5/C=C\CC6OC7C(CC=CCC6OC5CCCC4OC3CC2O1)OC1CC2OC3CC(=O)OC3C[C@@H](C)C[C@@]2(C)OC1C[C@@H]7C` (some centres not stated) [MLS002320514], the EC50 is 2.15 µM.

The compound `COc1ccc(-c2sc3ccccc3c2-c2ccc(OCCN(C)C)cc2)cc1` [MLS002473632] showed a concentration giving a half-maximal response (EC50) of over 30 µM.

The compound `Cc1ccc(NC(=O)c2cc(N3C(=O)C=CC3=O)ccc2N2CCOCC2)cc1Cl` [N-(3-chloro-4-methylphenyl)-5-(2,5-dioxo-2,5-dihydro-1H-pyrrol-1-yl)-2-(4-morpholinyl)benzamide] yielded an EC50 of 5.5 µM. This counts as single-digit micromolar.

`O=C(COc1ccc(C=NNC(=O)c2cc3ccccc3o2)cc1Cl)Nc1ccccc1` [SMR000160815]: the EC50 is over 30 µM.

In turn, `CCOC(=O)COc1ccccc1/C=C\[N+](=O)[O-]` [SMR000204386] came in with a concentration giving a half-maximal response (EC50) of 2.45 µM.

As for `CN(C)CCOc1ccc(-c2c(-c3ccccc3)sc3ccccc23)cc1` [SMR001397792], the EC50 is over 30 µM.

On to `CCOC(=O)C(=Cc1ccc(OC(F)F)cc1)C1=Nn2c(nnc2-c2ccc(Cl)cc2)SC1` [ethyl (Z)-2-[3-(4-chlorophenyl)-7H-[1,2,4]triazolo[3,4-b][1,3,4]thiadiazin-6-yl]-3-[4-(difluoromethoxy)phenyl]prop-2-enoate], for which the EC50 was determined as 7.79 µM. That is a single-digit micromolar value.

As to `COC(=O)C[C@]1(C(=O)OC)CN(C#N)N(c2ccc(Cl)cc2)C12c1ccccc1-c1ccccc12` [methyl 1-(4-chlorophenyl)-2-cyano-4-(2-methoxy-2-oxoethyl)spiro[pyrazolidine-5,9'-(9'H)-fluorene]-4-carboxylate], the EC50 is over 30 µM.

Staying with this experiment, now noted: inactive by the depositor's call.
`CC1(C)C[C@H]2C=C(C=O)[C@]3(C=O)C[C@]3(C)[C@H]2C1`: the EC50 came to 3.15 µM.

Compound `FC(F)(F)c1nnc(-c2ccccc2)nc1Sc1ccc(Cl)cc1` [SMR000180067] showed an EC50 of 0.73 µM.

As to `COc1cccc(-c2sc3ccc(OC)cc3c2-c2ccc(OCCN(C)C)cc2)c1` [SMR001397780], the EC50 came out at 0.22 µM.

`COc1cccc(-c2sc3ccccc3c2-c2ccc(OCCN3CCCCC3)cc2)c1` [SMR001397793] showed an EC50 of 5.46 µM. Compared with the last compound, the EC50 is about 25-fold higher.

The record behind these values is BindingDB's records for doi:10.7270/Q2ZG6QP2 (Nmmlsc, 2010).
